From US20130202653A1, “3-ARYL-3-HYDROXY-2-AMINO-PROPIONIC ACID AMIDES, 3-HETEROARYL-3-HYDROXY-2-AMINOPROPIONIC ACID AMIDES AND RELATED COMPOUNDS HAVING ANALGESIC AND/OR IMMUNO STIMULANT ACTIVITY” (Allergan, Inc., priority 2005, published 2013) come the findings set out here.

Counter-ions that a name gives are not always drawn.

The first assay has as its system tactile allodynia in the rat Chung model. Kind of assay: Chung model: reversal of tactile allodynia (von Frey hairs) after spinal nerve ligation. The settings on record: 300 μg/kg IP, peak at 30 min post dose, hydrochloride. Type of assay: in vivo. The source says:
An art-accepted model or assay for measuring an analgesic effect of a compound in chronic pain (in particular peripheral neuropathy) is the model known as Kim and Chung 1992, Pain […], pp 355-363 (Chung model). This model involves the surgical ligation of the L5 (and optionally the L6) spinal nerves on one side in experimental animals. Rats recovering from the surgery gain weight and display a level of general activity similar to that of normal rats. However, these rats develop abnormalities of the foot, wherein the hindpaw is moderately everted and the toes are held together. More importantly, the hindpaw on the side affected by the surgery appears to become sensitive to low-threshold mechanical stimuli and will perceive pain instead of the faint sensation of touch. This sensitivity to normally non-painful touch, called “tactile allodynia”, develops within the first week after surgery and lasts for at least two months. The allodynia response includes lifting the affected hindpaw to escape from the stimulus, licking the paw and holding it in the air for many seconds. None of these responses is normally seen in the control group.
To produce the tactile allodynia, rats are anesthetized before surgery. The surgical site is shaved and prepared either with betadine or Novacaine. Incision is made from the thoracic vertebra X111 down toward the sacrum. Muscle tissue is separated from the spinal vertebra (left side) at the L4-S2 levels. The L6 vertebra is located and the transverse process is carefully removed with a small rongeur to expose the L4-L6 spinal nerves. The L5 and L6 spinal nerves are isolated and tightly ligated with 6-0 silk thread. The same procedure is done on the right side as a control, except no ligation of the spinal nerves is performed.
After a complete hemostasis is confirmed, the wounds are sutured. A small amount of antibiotic ointment is applied to the incised area, and the rat is transferred to the recovery plastic cage under a regulated heat-temperature lamp.
On the day of the experiment, at least seven days after the surgery, typically six rats per test group are administered the test drugs by intraperitoneal (i.p.) injection or oral gavage (p.o.). For i.p. administration, the compounds are formulated in H2O and given in a volume of 1 ml/kg body weight by injecting into the intraperitoneal cavity. For p.o. administration, the compounds are formulated in H2O and given in a volume of 1 ml/kg body weight using an 18-gauge, 3 inch gavage needle that is slowly inserted through the esophagus into the stomach.
Tactile allodynia is assessed via von Frey hairs, which are a series of fine hairs with incremental differences in stiffness. Rats are placed in a plastic cage with a wire mesh bottom and allowed to acclimate for approximately 30 minutes. To establish the pre-drug baseline, the von Frey hairs are applied perpendicularly through the mesh to the mid-plantar region of the rats' hindpaw with sufficient force to cause slight buckling and held for 6-8 seconds. The applied force has been calculated to range from 0.41 to 15.1 grams. If the paw is sharply withdrawn, it is considered a positive response. A normal animal will not respond to stimuli in this range, but a surgically ligated paw will be withdrawn in response to a 1-2 gram hair. The 50% paw withdrawal threshold is determined using the method of Dixon, W. J., Ann. Rev. Pharmacol. Toxicol. 20:441-462 (1980) hereby incorporated by reference. Tactile allodynia is measured prior to and 15, 30, and 60 minutes after drug administration. The post-drug threshold is compared to the pre-drug threshold and the percent reversal of tactile sensitivity is calculated based on a normal threshold of 15.1 grams.
Table 1 below indicates the degree of pain reversal obtained in the Chung model with exemplary compounds of the invention. […]
Turning to `NC(C(=O)N1CCCC1)C(O)c1ccsc1` (single isomer, unassigned; (-)) [Compound 206, (−)-threo-2-Amino-3-hydroxy-1-(pyrrolidin-1-yl)-3-(thiophen-3-yl)propan-1-one hydrochloride], the “Peak % Pain reversal: time post dose” value amounted to 67% 30 min.

The same assay, now with this note: Rattus norvegicus, ip, 0.5 h, 300 μg/kg IP, peak at 30 min post dose, read-out: Peak % Pain reversal: time post dose.
For the compound `O=C([C@H](NCc1cccc(I)c1)[C@@H](O)c1ccncc1)N1CCCC1` (racemic) [Compound 227, (±)-threo-2-(3-iodobenzylamino)-3-hydroxy-3-(pyridin-4-yl)-1-(pyrrolidin-1-yl)-propan-1-one dihydrochloride], the inhibition in vivo at 0.3 mg/kg was 95%.

With `NC(C(=O)N1CCCC1)C(O)c1ccsc1` (single isomer, unassigned; (+)) [Compound 205, (+)-threo-2-Amino-3-hydroxy-1-(pyrrolidin-1-yl)-3-(thiophen-3-yl)propan-1-one hydrochloride], the inhibition in vivo at 0.3 mg/kg was 62%.

For the compound `O=C(N[C@@H](C(=O)N1CCCC1)[C@@H](O)c1ccncc1)c1ccc(Cl)c(Cl)c1` (racemic) [Compound 57, 3,4-Dichloro-N-(DL-threo-1-Hydroxy-3-oxo-1-(pyridin-4-yl)-3-(pyrrolidin-1-yl)propan-2-yl)benzamide], the inhibition in vivo at 0.3 mg/kg was 51%.

For `C[C@@](O)(c1ccncc1)[C@@H](N)C(=O)N1CCCC1` (racemic) [Compound 239, (±)-erythro-2-Amino-3-hydroxy-3-(pyridin-4-yl)-1-(pyrrolidin-1-yl)butan-1-one dihydrochloride], the inhibition in vivo at 0.3 mg/kg was 75%.

On to `N[C@@H](C(=O)N1CCCC1)[C@@H](O)c1ccoc1` (racemic) [Compound 27, DL-threo-2-Amino-3-(furan-3-yl)-3-hydroxy-1-(pyrrolidin-1-yl)propan-1-one hydrochloride], for which the inhibition in vivo at 0.3 mg/kg is 42%.

The same assay, now with this note: Rattus norvegicus, ip, 1 h, 30 μg/kg IP, peak at 60 min post dose, read-out: Peak % Pain reversal: time post dose.
With `N[C@@H](C(=O)N1CCCC1)[C@H](O)c1ccncc1` (racemic) [Compound 219, (±)-erythro-2-amino-3-hydroxy-3-(pyridin-4-yl)-1-(pyrrolidin-1-yl)propan-1-one dihydrochloride], the inhibition in vivo at 0.03 mg/kg came out at 82%.

Regarding `N[C@@H](C(=O)N1CCCC1)[C@@H](O)c1cccnc1` (racemic) [Compound 20, DL-threo-2-Amino-3-hydroxy-3-(pyridin-3-yl)-1-(pyrrolidin-1-yl)propan-1-one dihydrochloride], the inhibition in vivo at 0.03 mg/kg was found to be 92%.

As for `NC(C(=O)N1CC[C@H](F)C1)C(O)c1ccncc1` (single isomer, unassigned; (-)) [Compound 248, dihydrochloride], the inhibition in vivo at 0.03 mg/kg was found to be 59%.

As to `N[C@@H](Cc1ccncc1)C(=O)N1CCCC1` [Compound 240, (S)-2-amino-3-(pyridin-4-yl)-1-(pyrrolidin-1-yl)propan-1-one dihydrochloride], the inhibition in vivo at 0.03 mg/kg was found to be 70%.

The assay is the same for the next values; noted with them: Rattus norvegicus, ip, 1 h, 300 μg/kg IP, peak at 60 min post dose, read-out: Peak % Pain reversal: time post dose.
`N[C@@H](C(=O)N1CCCC1)[C@@H](O)c1ccncc1Cl` (racemic) [Compound 43, DL-threo-2-Amino-3-(3-chloropyridin-4-yl)-3-hydroxy-1-(pyrrolidin-1-yl)propan-1-one dihydrochloride]: the inhibition in vivo at 0.3 mg/kg is 96%.

For `N[C@@H](C(=O)N1CCCC1)[C@@H](O)c1ccc(I)cc1` (racemic) [Compound 210, (±)-threo-2-Amino-3-hydroxy-3-hydroxy-3-(4-iodophenyl)-1-(pyrrolidin-1-yl)propan-1-one dihydrochloride], the inhibition in vivo at 0.3 mg/kg is 78%.

Turning to `N[C@H](C(=O)N1CCCC1)[C@@H](O)c1ccncc1` [Compound 221, (+)-(2S,3S)-2-amino-3-hydroxy-3-(pyridin-4-yl)-1-(pyrrolidin-1-yl)propan-1-one dihydrochloride], the inhibition in vivo at 0.3 mg/kg came to 87%.

`NC(C(=O)N1CC[C@@H](F)C1)C(O)c1ccncc1` (stereo partly drawn) [Compound 215, (2S,3R)- & (2R,3S)-2-Amino-1-((R)-3-fluoropyrrolidin-1-yl)-3-hydroxy-3-(pyridin-4-yl)propan-1-one dihydrochlorides]: the inhibition in vivo at 0.3 mg/kg was found to be 73%.

For the compound `N[C@@H](C(=O)N1CCCC1)[C@@H](O)c1csc2ccccc12` (racemic) [Compound 26, hydrochloride], the inhibition in vivo at 0.3 mg/kg amounted to 92%.

With `CC(C)(C)OC(=O)N[C@@H](C(=O)N1CCCC1)[C@@H](O)c1ccncc1` (racemic) [Compound 218, tert-butyl(±)-threo-1-hydroxy-3-oxo-1-(pyridin-4-yl)-3-(pyrrolidin-1-yl)propan-2-ylcarbamate hydrochloride], the inhibition in vivo at 0.3 mg/kg turned out to be 32%.

In the case of `N[C@@H](C(=O)N1CC=CC1)[C@@H](O)c1ccnc(Cl)c1` (racemic) [Compound 34, DL-threo-2-Amino-3-(2-chloropyridin-4-yl)-3-hydroxy-1-(2H-pyrrol-1 (5H)-yl)propan-1-one dihydrochloride], the inhibition in vivo at 0.3 mg/kg was found to be 62%.

`N[C@@H](C(=O)N1CCCC1)[C@@H](O)c1cccs1` (racemic) [Compound 24, DL-threo-2-Amino-3-hydroxy-1-(pyrrolidin-1-yl)-3-(thiophen-2-yl)propan-1-one hydrochloride]: the inhibition in vivo at 0.3 mg/kg came out at 60%.

For the compound `N[C@@H](C(=O)N1CCCC1)[C@@H](O)c1ccc2ccccc2c1` (racemic) [Compound 28, DL-threo-2-Amino-3-hydroxy-3-(naphthalen-2-yl)-1-(pyrrolidin-1-yl)propan-1-one hydrochloride], the inhibition in vivo at 0.3 mg/kg came out at 92%.

As to `O=C([C@H](NCc1ccccc1I)[C@@H](O)c1ccncc1)N1CCCC1` (racemic) [Compound 226, (±)-threo-2-(2-iodobenzylamino)-3-hydroxy-3-(pyridin-4-yl)-1-(pyrrolidin-1-yl)-propan-1-one dihydrochloride], the inhibition in vivo at 0.3 mg/kg was found to be 95%.

For `N[C@@H](C(=O)N1CCCC1)[C@@H](O)c1ccc2ccccc2n1` (racemic) [Compound 30, DL-threo-2-Amino-3-hydroxy-1-(pyrrolidin-1-yl)-3-(quinolin-2-yl)propan-1-one dihydrochloride], the inhibition in vivo at 0.3 mg/kg amounted to 53%.

With `COc1ccc(CN[C@@H](C(=O)N2CCCC2)[C@@H](O)c2ccncc2)cc1` (racemic) [Compound 67, DL-threo-2-(4-Methoxybenzylamino)-3-hydroxy-3-(pyridin-4-yl)-1-(pyrrolidin-1-yl)propan-1-one one], the inhibition in vivo at 0.3 mg/kg worked out at 78%.

For `O=C([C@H](N[C@@H](CO)c1ccccc1)[C@@H](O)c1ccncc1)N1CCCC1` [Compound 234, (2R,3S)-2-((R)-2-Hydroxy-1-phenylethylamino)-3-hydroxy-3-(pyridin-4-yl)-1-(pyrrolidin-1-yl)propan-1-one dihydrochloride], the inhibition in vivo at 0.3 mg/kg is 59%.

In the case of `N[C@@H](C(=O)N1CCCC1)[C@@H](O)c1cccc2ccccc12` (racemic) [Compound 29, DL-threo-2-Amino-3-hydroxy-3-(naphthalen-1-yl)-1-(pyrrolidin-1-yl)propan-1-one hydrochloride], the inhibition in vivo at 0.3 mg/kg is 47%.

On to `N[C@H](C(=O)N1CCCC1)[C@H](O)c1ccncc1` [Compound 204, (+)-(2S,3R)-2-Amino-3-hydroxy-3-(pyridin-4-yl)-1-(pyrrolidin-1-yl)propan-1-one dihydrochloride], for which the inhibition in vivo at 0.3 mg/kg was determined as 50%.

Take `NCCCCCC(=O)N[C@@H](C(=O)N1CCCC1)[C@@H](O)c1ccncc1` (racemic) [Compound 238, 6-amino-N-((±)-threo-1-hydroxy-3-oxo-1-(pyridin-4-yl)-3-(pyrrolidin-1-yl)propan-2-yl)hexanamide]: the inhibition in vivo at 0.3 mg/kg was 61%.
